Assay results as given in patent US10059701B2 (Merck Patent GmbH, priority 2015, dated 2018).
Where a name gives a salt, the structure may show the parent alone.

Legend:
IRAK1 = target: T1, IRAK1 (Homo sapiens, UniProt P51617); assay: IRAK1 enzymatic assay (ADP-Glo luminescence); type: biochemical; conditions: purified human recombinant His-TEV-IRAK1 (194-712)
T1 construct: His-TEV-IRAK1 (194-712); His (N); TEV cleavage site (N)
How it was run: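 Recombinant human His-TEV-IRAK1 (194-712), 0.3 μg/ml, preincubated 15 min at RT with compounds (10 μM to 0.5 nM) in 50 mM Hepes pH 7.0, 10 mM MgCl2, 2 mM DTT, 0.1% BSA. ATP-started reaction run 2 hours at RT; ADP formed from ATP hydrolysis/autophosphorylation read by ADP-Glo luminescence.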

IRAK4 = target: T2, IRAK4 (Homo sapiens, UniProt Q9NWZ3); assay: IRAK4 enzymatic assay (ADP-Glo luminescence); type: biochemical; conditions: purified human recombinant His-TEV-IRAK4 (1-460), ATP 2 μM
T2 construct: His-TEV-IRAK4 (1-460); His (N); TEV cleavage site (N)
T2 sequence (Q9NWZ3 1-460): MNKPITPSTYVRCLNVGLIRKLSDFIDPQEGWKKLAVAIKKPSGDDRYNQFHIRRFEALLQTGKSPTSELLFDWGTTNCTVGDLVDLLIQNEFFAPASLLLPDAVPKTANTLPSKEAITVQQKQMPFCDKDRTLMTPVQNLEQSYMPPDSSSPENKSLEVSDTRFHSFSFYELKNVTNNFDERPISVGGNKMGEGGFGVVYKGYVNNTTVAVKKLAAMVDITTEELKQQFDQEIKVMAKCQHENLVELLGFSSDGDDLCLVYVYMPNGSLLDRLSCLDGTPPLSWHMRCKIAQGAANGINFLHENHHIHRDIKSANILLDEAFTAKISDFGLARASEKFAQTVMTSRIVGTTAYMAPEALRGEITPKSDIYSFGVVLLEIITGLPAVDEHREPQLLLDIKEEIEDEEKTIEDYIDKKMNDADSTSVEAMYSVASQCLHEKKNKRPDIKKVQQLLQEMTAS
How it was run: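 Recombinant His-TEV-IRAK4 (1-460) at 0.3 μg/ml preincubated 15 min at RT with compounds (10 μM to 0.5 nM) in Hepes pH 7.0 buffer with MgCl2/MnCl2. Reaction started with 2 μM ATP and 300 nM STK1-biotin peptide, run 2 h at RT. ADP formed read by ADP-Glo luminescence.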

T1 sequence (P51617 194-712): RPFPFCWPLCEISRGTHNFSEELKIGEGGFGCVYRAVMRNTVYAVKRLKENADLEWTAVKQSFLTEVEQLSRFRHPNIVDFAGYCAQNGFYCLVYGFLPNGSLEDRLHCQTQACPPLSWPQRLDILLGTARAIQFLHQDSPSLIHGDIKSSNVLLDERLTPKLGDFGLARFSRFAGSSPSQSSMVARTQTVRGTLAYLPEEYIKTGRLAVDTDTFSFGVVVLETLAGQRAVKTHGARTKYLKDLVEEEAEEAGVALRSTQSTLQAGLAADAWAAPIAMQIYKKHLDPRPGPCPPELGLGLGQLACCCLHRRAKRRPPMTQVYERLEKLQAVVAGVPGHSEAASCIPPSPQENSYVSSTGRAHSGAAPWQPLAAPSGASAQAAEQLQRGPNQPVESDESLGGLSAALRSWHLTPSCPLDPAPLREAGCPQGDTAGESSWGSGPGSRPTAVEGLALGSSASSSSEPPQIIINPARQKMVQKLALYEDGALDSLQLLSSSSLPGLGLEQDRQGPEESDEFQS

SMILES | IC50 (IRAK1) | IC50 (IRAK4)
O=C(/N=c1\[nH]c2cc(N3CCOCC3=O)ccc2n1C1CCNCC1)c1cccc(C(F)(F)F)c1 [Compound 128, (E)-N-(5-(3-oxomorpholino)-1-(piperidin-4-yl)-1H-benzo[d]imidazole-2(3H)-ylidene)-3-(trifluoromethyl)benzamide hydrochloride] | > 1000 nM | ≤ 100 nM
Cn1cnc2cc(C(=O)/N=c3\[nH]c4cc(N5CCOCC5=O)ccc4n3CCCO)ccc21 [Compound 22, (E)-N-(1-(3-hydroxypropyl)-5-(3-oxomorpholino)-1H-benzo[d]imidazol-2(3H)-ylidene)-1-methyl-1H-benzo[d]imidazole-5-carboxamide] | > 1000 nM | > 1000 nM
O=C(/N=c1\[nH]c2cc(N3CCOCC3=O)ccc2n1CC1(CO)CC1)c1cccc(C(F)(F)F)c1 [Compound 9, (E)-N-(1-((1-(hydroxymethyl)cyclopropyl)methyl)-5-(3-oxomorpholino)-1H-benzo[d]imidazol-2(3H)-ylidene)-3-(trifluoromethyl)benzamide] | 100 to 1000 nM | ≤ 100 nM
O=C(/N=c1\[nH]c2cc(N3CCCOC3=O)ccc2n1CC1(F)CCOCC1)c1cccc(C(F)F)c1 [Example 228, (E)-3-(difluoromethyl)-N-(1-((4-fluorotetrahydro-2H-pyran-4-yl)methyl)-5-(2-oxo-1,3-oxazinan-3-yl)-1H-benzo[d]imidazol-2(3H)-ylidene)benzamide] | 100 to 1000 nM | ≤ 100 nM
CN(C)S(=O)(=O)c1cccc(C(=O)/N=c2\[nH]c3cc(N4CCOCC4=O)ccc3n2CCCO)c1 [Compound 101, (E)-3-(N,N-dimethylsulfamoyl)-N-(1-(3-hydroxypropyl)-5-(3-oxomorpholino)-1H-benzo[d]imidazol-2(3H)-ylidene)benzamide] | 100 to 1000 nM | ≤ 100 nM
CSCCn1/c(=N/C(=O)c2cccc(C(F)F)c2)[nH]c2cc(N3CCOCC3=O)ccc21 [Compound 63, (E)-3-(difluoromethyl)-N-(1-(2-(methylthio)ethyl)-5-(3-oxomorpholino)-1H-benzo[d]imidazol-2(3H)-ylidene)benzamide] | 100 to 1000 nM | ≤ 100 nM
O=C(/N=c1\[nH]c2cc(N3CCOCC3=O)ccc2n1CCCO)c1cccnc1 [Compound 77, (E)-N-(1-(3-hydroxypropyl)-5-(3-oxomorpholino)-1H-benzo[d]imidazol-2(3H)-ylidene)nicotinamide] | 100 to 1000 nM | ≤ 100 nM
O=C(/N=c1\[nH]c2cc(N3CCCOC3=O)ccc2n1CC1(F)COC1)c1cccc(C(F)F)c1 [Example 227, (E)-3-(difluoromethyl)-N-(1-((3-fluorooxetan-3-yl)methyl)-5-(2-oxo-1,3-oxazinan-3-yl)-1H-benzo[d]imidazol-2(3H)-ylidene)benzamide] | 100 to 1000 nM | ≤ 100 nM
O=C(/N=c1\[nH]c2cc(N3CCOCC3=O)ccc2n1CCCO)c1cccc(-c2ccn(C(F)F)c(=O)c2)c1 [Compound 164, (E)-3-(1-(difluoromethyl)-2-oxo-1,2-dihydropyridin-4-yl)-N-(1-(3-hydroxypropyl)-5-(3-oxomorpholino)-1H-benzo[d]imidazol-2(3H)-ylidene)benzamide] | 100 to 1000 nM | ≤ 100 nM
CC(C)(C)OC(=O)N1CCC(n2/c(=N/C(=O)c3cccc(C(F)(F)F)c3)[nH]c3cc(N4CCOCC4=O)ccc32)CC1 [Compound 126, (E)-tert-butyl 4-(5-(3-oxomorpholino)-2-((3-(trifluoromethyl)benzoyl)imino)-2,3-dihydro-1H-benzo[d]imidazole-1-yl)piperidine-1-carboxylate] | > 1000 nM | ≤ 100 nM

Next, values leading:

IC50 (IRAK1) | IC50 (IRAK4) | SMILES
100 to 1000 nM | ≤ 100 nM | O=C(/N=c1\[nH]c2cc(N3CCOCC3=O)c(F)cc2n1CCCO)c1cccc(C(F)F)c1 [Compound 140, (E)-3-(difluoromethyl)-N-(6-fluoro-1-(3-hydroxypropyl)-5-(3-oxomorpholino)-1H-benzo[d]imidazol-2(3H)-ylidene)benzamide]
≤ 100 nM | ≤ 100 nM | O=C(/N=c1\[nH]c2cc(N3CCOCC3=O)ccc2n1CCCO)c1cccc(-c2cc[nH]c(=O)c2)c1 [Compound 107, (E)-N-(1-(3-hydroxypropyl)-5-(3-oxomorpholino)-1H-benzo[d]imidazol-2(3H)-ylidene)-3-(2-oxo-1,2-dihydropyridin-4-yl)benzamide]
≤ 100 nM | ≤ 100 nM | Cn1ncn(-c2ccc3c(c2)[nH]/c(=N\C(=O)c2cccc(C(F)(F)F)c2)n3CCCO)c1=O [Compound 189, (E)-N-(1-(3-hydroxypropyl)-5-(1-methyl-5-oxo-4,5-dihydro-1H-1,2,4-triazol-4(5H)-yl)-1H-benzo[d]imidazol-2(3H)-ylidene)-3-(trifluoromethyl)benzamide]
100 to 1000 nM | ≤ 100 nM | O=C(/N=c1\[nH]c2cc(N3CCCOC3=O)ccc2n1C1CC(F)(F)C1)c1cccc(C(F)(F)F)c1 [Compound 156, (E)-N-(1-(3,3-difluorocyclobutyl)-5-(2-oxo-1,3-oxazinan-3-yl)-1H-benzo[d]imidazol-2(3H)-ylidene)-3-(trifluoromethyl)benzamide]
≤ 100 nM | ≤ 100 nM | O=C(/N=c1\[nH]c2cc(N3CCOCC3=O)ccc2n1[C@H]1CC[C@@H](CO)CC1)c1cccc(C(F)F)c1 [Compound 123, cis-(E)-3-(difluoromethyl)-N-(1-(4-(hydroxymethyl)cyclohexyl)-5-(3-oxomorpholino)-1H-benzo[d]imidazol-2(3H)-ylidene)benzamide]
≤ 100 nM | ≤ 100 nM | CS(=O)(=O)CCn1/c(=N/C(=O)c2cccc(C(F)F)c2)[nH]c2cc(N3CCOCC3=O)ccc21 [Compound 93, (E)-3-(difluoromethyl)-N-(1-(2-(methylsulfonyl)ethyl)-5-(3-oxomorpholino)-1H-benzo[d]imidazol-2(3H)-ylidene)benzamide]
≤ 100 nM | ≤ 100 nM | CC(=O)N1CCN(c2ccc3c(c2)[nH]/c(=N\C(=O)c2cccc(C(F)F)c2)n3CCCO)C(=O)C1 [Compound 110, (E)-N-(5-(4-acetyl-2-oxopiperazin-1-yl)-(1-(3-hydroxypropyl)-1H-benzo[d]imidazol-2(3H)-ylidene))-3-(difluoromethyl)benzamide]
≤ 100 nM | ≤ 100 nM | [2H]C([2H])([2H])Oc1cc2c(cc1N1CCOCC1=O)[nH]/c(=N\C(=O)c1cccc(C(F)F)c1)n2CCCO [Example 203, (E)-3-(difluoromethyl)-N-(1-(3-hydroxypropyl)-6-(trideuteromethoxy)-5-(3-oxomorpholino)-1H-benzo[d]imidazol-2(3H)-ylidene)benzamide]
≤ 100 nM | ≤ 100 nM | O=C(/N=c1\[nH]c2cc(N3C(=O)COCC34CC4)ccc2n1CCCO)c1cccc(C(F)(F)F)c1 [Example 189, (E)-N-(1-(3-hydroxypropyl)-5-(5-oxo-7-oxa-4-azaspiro[2.5]octan-4-yl)-1H-benzo[d]imidazol-2(3H)-ylidene)-3-(trifluoromethyl)benzamide]
≤ 100 nM | ≤ 100 nM | O=C(/N=c1\[nH]c2cc(N3CCCOC3=O)ccc2n1CC(F)CO)c1cccc(C(F)(F)F)c1 (stereo not shown) [Compound 145, (E)-N-(1-(2-fluoro-3-hydroxypropyl)-5-(2-oxo-1,3-oxazinan-3-yl)-1H-benzo[d]imidazol-2(3H)-ylidene)-3-(trifluoromethyl)benzamide]
